Data set [1] deals with ATP-dependent translocase ABCB1 (Homo sapiens, UniProt P08183). Description: TP_TRANSPORTER: transepithelial transport (basal to apical) in MDR1-expressing LLC-PK1 cells. The format is functional, cell-based. Particulars: pig.
In data set [2] the target is ATP-dependent translocase ABCB1 (Mus musculus, UniProt P21447). Description: TP_TRANSPORTER: increase in brain concentration in mdr1a(-/-) mouse. It counts as functional, organism-based. Particulars: in vivo.
ATP-dependent translocase ABCB1 (Mus musculus, UniProt P21447), sequence (P21447 whole entry): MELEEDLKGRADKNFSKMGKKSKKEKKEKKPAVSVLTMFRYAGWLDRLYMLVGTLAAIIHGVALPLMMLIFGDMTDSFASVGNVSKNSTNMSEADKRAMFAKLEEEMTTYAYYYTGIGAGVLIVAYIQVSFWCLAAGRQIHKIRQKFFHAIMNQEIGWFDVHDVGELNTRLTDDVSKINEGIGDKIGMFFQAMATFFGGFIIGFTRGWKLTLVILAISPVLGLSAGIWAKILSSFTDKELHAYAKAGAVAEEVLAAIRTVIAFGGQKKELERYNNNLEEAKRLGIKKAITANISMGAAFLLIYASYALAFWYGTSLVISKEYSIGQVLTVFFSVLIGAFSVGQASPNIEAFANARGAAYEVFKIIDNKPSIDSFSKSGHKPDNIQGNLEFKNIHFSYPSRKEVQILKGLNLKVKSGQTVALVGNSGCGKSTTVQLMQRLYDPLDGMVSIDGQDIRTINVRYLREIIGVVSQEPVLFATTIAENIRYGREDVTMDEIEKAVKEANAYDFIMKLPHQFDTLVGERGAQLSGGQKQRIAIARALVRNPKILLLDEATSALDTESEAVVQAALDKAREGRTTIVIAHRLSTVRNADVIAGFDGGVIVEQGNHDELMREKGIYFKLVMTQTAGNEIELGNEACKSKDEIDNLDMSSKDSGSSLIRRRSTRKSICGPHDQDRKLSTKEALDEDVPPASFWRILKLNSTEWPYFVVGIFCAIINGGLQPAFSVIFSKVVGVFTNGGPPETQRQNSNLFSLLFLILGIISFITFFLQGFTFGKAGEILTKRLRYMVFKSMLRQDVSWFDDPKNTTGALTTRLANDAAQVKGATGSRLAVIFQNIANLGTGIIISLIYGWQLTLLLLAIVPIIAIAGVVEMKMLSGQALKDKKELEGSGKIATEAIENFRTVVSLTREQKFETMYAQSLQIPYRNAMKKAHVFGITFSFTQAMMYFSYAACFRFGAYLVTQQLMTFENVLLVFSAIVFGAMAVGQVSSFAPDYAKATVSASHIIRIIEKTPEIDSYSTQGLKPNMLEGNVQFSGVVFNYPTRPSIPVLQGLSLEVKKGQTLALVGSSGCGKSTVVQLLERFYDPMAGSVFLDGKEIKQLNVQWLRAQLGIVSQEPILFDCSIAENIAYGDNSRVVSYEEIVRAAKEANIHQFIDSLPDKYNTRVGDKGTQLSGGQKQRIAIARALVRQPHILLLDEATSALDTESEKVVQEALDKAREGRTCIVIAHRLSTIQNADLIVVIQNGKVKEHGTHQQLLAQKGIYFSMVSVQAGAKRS

ATP-dependent translocase ABCB1 (Homo sapiens, UniProt P08183), sequence (P08183 whole entry): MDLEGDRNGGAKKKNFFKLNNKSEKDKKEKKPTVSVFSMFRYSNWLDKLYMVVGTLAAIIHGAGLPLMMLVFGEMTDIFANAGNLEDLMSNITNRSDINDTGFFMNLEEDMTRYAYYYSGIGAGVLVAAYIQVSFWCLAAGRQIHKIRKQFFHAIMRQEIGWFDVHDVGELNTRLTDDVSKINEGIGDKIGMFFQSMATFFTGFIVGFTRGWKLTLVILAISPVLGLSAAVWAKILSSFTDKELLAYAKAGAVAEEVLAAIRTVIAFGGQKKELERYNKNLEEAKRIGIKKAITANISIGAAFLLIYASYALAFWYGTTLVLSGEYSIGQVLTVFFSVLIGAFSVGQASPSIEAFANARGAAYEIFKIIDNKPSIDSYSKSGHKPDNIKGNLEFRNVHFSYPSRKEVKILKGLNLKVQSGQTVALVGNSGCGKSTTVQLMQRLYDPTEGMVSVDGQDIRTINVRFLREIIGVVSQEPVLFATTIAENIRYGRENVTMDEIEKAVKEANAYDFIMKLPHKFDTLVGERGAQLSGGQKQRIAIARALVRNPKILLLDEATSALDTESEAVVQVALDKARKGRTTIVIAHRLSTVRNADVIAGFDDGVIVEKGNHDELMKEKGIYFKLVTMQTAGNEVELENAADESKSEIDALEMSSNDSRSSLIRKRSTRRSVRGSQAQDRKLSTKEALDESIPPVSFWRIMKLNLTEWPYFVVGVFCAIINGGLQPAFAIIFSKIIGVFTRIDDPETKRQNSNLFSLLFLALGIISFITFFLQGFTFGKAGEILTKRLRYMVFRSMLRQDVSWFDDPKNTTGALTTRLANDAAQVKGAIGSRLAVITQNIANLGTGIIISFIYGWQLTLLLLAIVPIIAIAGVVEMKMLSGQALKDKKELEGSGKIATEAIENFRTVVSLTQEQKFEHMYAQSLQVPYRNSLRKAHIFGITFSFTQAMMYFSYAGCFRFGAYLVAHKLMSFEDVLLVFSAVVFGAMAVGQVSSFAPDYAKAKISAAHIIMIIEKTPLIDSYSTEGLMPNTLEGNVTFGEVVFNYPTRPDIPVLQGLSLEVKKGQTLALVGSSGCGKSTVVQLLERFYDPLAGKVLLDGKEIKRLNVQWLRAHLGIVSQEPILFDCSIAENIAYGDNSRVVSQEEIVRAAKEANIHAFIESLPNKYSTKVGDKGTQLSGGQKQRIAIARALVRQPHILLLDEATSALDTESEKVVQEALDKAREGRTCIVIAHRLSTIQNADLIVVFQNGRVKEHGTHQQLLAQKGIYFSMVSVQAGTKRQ

In the case of `O=C(NCCN1CCN(c2cccc3c2OC[C@H](CO)O3)CC1)c1ccc(F)cc1` [FLESINOXAN], the Activity result in data set [1] and in data set [2] was “substrate [+]” each time.
